Results reported in ChEMBL document CHEMBL5126637, “Discovery of Phenolic Matrix Metalloproteinase Inhibitors by Peptide Microarray for Osteosarcoma Treatment” (J Nat Prod, 2022).
Calls of active or inactive are those of the source. The calls are words filed in the database; no cut-off is given here.

How the values were obtained:
[1] = biological target: T1, Matrix metalloproteinase-9 (Homo sapiens, UniProt P14780); assay: Inhibition of MMP9 in human U2OS cells at 5 umol/L by peptide microarray-based fluorescence assay; assay type: cell-based; details: dose 5.0 µmol/L
T1 sequence (P14780 whole entry): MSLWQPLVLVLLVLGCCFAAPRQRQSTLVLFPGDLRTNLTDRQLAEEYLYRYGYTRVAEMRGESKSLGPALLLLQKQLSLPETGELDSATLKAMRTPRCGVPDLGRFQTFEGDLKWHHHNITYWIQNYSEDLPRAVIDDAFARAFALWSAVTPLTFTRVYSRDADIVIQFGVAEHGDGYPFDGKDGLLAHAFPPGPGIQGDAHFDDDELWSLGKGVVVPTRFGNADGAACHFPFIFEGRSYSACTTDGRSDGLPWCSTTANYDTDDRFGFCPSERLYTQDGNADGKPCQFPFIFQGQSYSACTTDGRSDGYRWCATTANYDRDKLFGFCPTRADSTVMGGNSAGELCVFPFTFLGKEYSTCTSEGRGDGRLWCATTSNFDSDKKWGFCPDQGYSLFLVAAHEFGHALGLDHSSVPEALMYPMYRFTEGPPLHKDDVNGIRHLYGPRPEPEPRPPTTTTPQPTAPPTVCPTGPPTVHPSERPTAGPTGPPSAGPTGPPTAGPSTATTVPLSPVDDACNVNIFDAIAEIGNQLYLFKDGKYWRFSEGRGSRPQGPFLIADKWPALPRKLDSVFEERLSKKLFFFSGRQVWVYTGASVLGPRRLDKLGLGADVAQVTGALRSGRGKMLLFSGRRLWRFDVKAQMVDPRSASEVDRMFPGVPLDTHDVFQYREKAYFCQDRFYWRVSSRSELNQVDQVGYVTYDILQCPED

[2] = biological target: T2, Collagenase 3 (Homo sapiens, UniProt P45452); assay: Inhibition of MMP13 in human U2OS cells at 5 umol/L by peptide microarray-based fluorescence assay; assay type: cell-based; details: dose 5.0 µmol/L
[3] = biological target: T3, Matrilysin (Homo sapiens) (UniProt P09237); assay: Inhibition of MMP7 in human U2OS cells at 5 umol/L by peptide microarray-based fluorescence assay; assay type: cell-based; details: dose 5.0 µmol/L
T3 sequence (whole entry): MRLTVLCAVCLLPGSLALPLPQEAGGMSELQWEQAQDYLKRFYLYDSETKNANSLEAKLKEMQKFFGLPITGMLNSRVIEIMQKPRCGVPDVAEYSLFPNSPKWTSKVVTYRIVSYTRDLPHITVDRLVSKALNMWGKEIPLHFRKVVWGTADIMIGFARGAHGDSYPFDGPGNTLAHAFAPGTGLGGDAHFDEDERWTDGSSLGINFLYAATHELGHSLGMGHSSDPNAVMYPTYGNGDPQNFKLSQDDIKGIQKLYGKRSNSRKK

[4] = biological target: T4, 72 kDa type IV collagenase (Homo sapiens, UniProt P08253); assay: Inhibition of MMP2 in human U2OS cells at 5 umol/L by peptide microarray-based fluorescence assay; assay type: cell-based; details: dose 5.0 µmol/L
Target sequence in this assay (P08253 110-660 limits assumed): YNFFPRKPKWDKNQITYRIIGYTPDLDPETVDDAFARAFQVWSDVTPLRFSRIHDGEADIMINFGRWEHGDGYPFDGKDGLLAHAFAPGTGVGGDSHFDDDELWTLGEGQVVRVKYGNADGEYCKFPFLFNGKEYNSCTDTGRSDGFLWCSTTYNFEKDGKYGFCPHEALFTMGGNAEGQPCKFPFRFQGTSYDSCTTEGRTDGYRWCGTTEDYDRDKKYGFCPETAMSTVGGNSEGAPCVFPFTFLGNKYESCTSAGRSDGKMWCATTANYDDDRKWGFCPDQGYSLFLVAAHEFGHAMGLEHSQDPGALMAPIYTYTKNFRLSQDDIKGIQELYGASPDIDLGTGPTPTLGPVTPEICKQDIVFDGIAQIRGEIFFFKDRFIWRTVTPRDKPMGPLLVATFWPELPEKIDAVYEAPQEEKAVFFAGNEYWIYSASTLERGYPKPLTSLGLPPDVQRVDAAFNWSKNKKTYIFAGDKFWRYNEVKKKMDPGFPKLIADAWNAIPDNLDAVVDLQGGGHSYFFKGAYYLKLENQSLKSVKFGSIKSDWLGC

[5] = biological target: T5, Interstitial collagenase (Homo sapiens) (UniProt P03956); assay: Inhibition of MMP1 in human U2OS cells at 5 umol/L by peptide microarray-based fluorescence assay; assay type: cell-based; details: dose 5.0 µmol/L
T5 sequence (whole entry): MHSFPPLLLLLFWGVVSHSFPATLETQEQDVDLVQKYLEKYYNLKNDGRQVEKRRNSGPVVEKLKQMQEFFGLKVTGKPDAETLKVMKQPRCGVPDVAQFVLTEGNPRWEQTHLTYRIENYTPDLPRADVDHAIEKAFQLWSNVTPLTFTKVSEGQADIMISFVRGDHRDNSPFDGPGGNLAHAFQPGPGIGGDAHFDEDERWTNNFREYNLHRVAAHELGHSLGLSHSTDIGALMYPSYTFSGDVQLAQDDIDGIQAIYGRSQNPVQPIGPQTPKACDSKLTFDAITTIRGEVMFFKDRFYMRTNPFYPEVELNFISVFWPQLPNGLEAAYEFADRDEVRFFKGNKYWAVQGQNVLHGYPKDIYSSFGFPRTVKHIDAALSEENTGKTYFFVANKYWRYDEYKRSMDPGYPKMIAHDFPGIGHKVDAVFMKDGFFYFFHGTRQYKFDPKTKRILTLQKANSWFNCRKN

[6] = biological target: T6, Stromelysin-1 (Homo sapiens, UniProt P08254); assay: Inhibition of MMP3 in human U2OS cells at 5 umol/L by peptide microarray-based fluorescence assay; assay type: cell-based; details: dose 5.0 µmol/L
Target sequence in this assay (P08254 100-477 limits assumed): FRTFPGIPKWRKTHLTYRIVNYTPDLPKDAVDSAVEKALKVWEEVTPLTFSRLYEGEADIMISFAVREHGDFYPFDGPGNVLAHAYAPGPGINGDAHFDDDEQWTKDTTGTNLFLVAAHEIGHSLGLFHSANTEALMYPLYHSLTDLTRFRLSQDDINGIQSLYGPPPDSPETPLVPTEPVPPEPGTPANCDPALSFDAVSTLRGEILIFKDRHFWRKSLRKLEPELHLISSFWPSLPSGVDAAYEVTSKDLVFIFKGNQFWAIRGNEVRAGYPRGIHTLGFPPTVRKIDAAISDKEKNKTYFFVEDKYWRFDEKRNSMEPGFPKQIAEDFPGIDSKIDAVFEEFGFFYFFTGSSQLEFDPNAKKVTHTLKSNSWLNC

[7] = Toxicity in human HCT-116 cells assessed as cell viability at 2.5 umol/L incubated for 24 hrs by MTT assay relative to control; assay type: cell-based; details: dose 2.5 µmol/L, read-out: Activity
[8] = Toxicity in human MCF7 cells assessed as cell viability at 2.5 umol/L incubated for 24 hrs by MTT assay relative to control; assay type: cell-based; details: dose 2.5 µmol/L, read-out: Activity
[9] = biological target: T2, Collagenase 3; assay: Inhibition of MMP13 in human U2OS cells at 1 umol/L by peptide microarray-based fluorescence assay; assay type: cell-based; details: dose 1.0 µmol/L
[10] = biological target: T1, Matrix metalloproteinase-9; assay: Inhibition of MMP9 in human U2OS cells at 1 umol/L by peptide microarray-based fluorescence assay; assay type: cell-based; details: dose 1.0 µmol/L
[11] = biological target: T3, Matrilysin (Homo sapiens); assay: Inhibition of MMP7 in human U2OS cells at 1 umol/L by peptide microarray-based fluorescence assay; assay type: cell-based; details: dose 1.0 µmol/L
[12] = biological target: T6, Stromelysin-1; assay: Inhibition of MMP3 in human U2OS cells at 1 umol/L by peptide microarray-based fluorescence assay; assay type: cell-based; details: dose 1.0 µmol/L
Target sequence in this assay (P08254 100-477 limits assumed): as above

[13] = biological target: T4, 72 kDa type IV collagenase; assay: Inhibition of MMP2 in human U2OS cells at 1 umol/L by peptide microarray-based fluorescence assay; assay type: cell-based; details: dose 1.0 µmol/L
Target sequence in this assay (P08253 110-660 limits assumed): as the sequence (P08253 110-660 limits assumed) above

[14] = biological target: T5, Interstitial collagenase (Homo sapiens); assay: Inhibition of MMP1 in human U2OS cells at 1 umol/L by peptide microarray-based fluorescence assay; assay type: cell-based; details: dose 1.0 µmol/L
[15] = biological target: T2, Collagenase 3; assay: Inhibition of MMP13 in human U2OS cells by peptide microarray-based fluorescence assay; assay type: cell-based
[16] = biological target: T1, Matrix metalloproteinase-9; assay: Inhibition of MMP9 in human U2OS cells by peptide microarray-based fluorescence assay; assay type: cell-based
[17] = biological target: T7, Matrilysin (Homo sapiens, UniProt P09237); assay: Inhibition of MMP7 in human U2OS cells by peptide microarray-based fluorescence assay; assay type: cell-based
T7 sequence (P09237 whole entry): T3 sequence (whole entry)

[18] = biological target: T6, Stromelysin-1; assay: Inhibition of MMP3 in human U2OS cells by peptide microarray-based fluorescence assay; assay type: cell-based
Target sequence in this assay (P08254 whole entry): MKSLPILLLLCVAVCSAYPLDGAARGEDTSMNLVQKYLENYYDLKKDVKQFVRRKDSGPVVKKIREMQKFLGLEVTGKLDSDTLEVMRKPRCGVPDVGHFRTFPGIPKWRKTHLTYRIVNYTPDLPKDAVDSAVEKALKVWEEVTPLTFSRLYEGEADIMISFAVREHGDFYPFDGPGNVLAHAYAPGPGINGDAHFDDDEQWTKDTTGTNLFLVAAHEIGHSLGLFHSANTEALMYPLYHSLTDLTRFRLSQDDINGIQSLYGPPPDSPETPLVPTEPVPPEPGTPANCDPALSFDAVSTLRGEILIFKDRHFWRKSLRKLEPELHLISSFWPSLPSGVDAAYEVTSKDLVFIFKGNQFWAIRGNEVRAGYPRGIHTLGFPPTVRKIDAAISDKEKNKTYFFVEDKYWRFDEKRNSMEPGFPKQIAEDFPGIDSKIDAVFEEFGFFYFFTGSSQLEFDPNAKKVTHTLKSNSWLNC

[19] = biological target: T4, 72 kDa type IV collagenase; assay: Inhibition of MMP2 in human U2OS cells by peptide microarray-based fluorescence assay; assay type: cell-based
Target sequence in this assay (P08253 whole entry): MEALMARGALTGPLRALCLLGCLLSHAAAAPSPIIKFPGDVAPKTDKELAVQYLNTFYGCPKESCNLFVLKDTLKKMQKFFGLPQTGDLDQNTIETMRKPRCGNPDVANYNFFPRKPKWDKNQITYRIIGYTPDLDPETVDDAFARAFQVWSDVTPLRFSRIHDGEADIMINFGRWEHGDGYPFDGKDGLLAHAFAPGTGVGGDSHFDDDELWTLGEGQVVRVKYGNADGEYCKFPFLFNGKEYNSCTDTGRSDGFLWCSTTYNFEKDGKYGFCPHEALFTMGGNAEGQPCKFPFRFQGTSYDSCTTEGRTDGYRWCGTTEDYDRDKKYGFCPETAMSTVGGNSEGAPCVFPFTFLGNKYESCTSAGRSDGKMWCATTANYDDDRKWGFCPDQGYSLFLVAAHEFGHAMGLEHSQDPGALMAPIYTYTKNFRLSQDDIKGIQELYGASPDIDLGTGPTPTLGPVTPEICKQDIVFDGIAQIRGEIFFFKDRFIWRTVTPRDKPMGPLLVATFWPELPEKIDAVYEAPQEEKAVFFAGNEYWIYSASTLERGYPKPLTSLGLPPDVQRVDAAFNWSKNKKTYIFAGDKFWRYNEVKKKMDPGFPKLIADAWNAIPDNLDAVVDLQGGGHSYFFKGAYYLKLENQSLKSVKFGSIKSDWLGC

[20] = biological target: T8, Interstitial collagenase (Homo sapiens, UniProt P03956); assay: Inhibition of MMP1 in human U2OS cells by peptide microarray-based fluorescence assay; assay type: cell-based
T8 sequence (P03956 whole entry): T5 sequence (whole entry)

[21] = system: U2OS; assay: Inhibition of cell migration of human U2OS cells at 2.5 umol/L incubated for 24 hrs by would healing assay; assay type: functional, cell-based; details: dose 2.5 µmol/L
[22] = Toxicity in human NCM460 cells assessed as cell viability at 2.5 umol/L incubated for 24 hrs by MTT assay relative to control; assay type: cell-based; details: dose 2.5 µmol/L, read-out: Activity
[23] = Toxicity in human HL7702 cells assessed as cell viability at 2.5 umol/L incubated for 24 hrs by MTT assay relative to control; assay type: cell-based, L02; details: dose 2.5 µmol/L, read-out: Activity
[24] = Toxicity in human HEK293T cells assessed as cell viability at 2.5 umol/L incubated for 24 hrs by MTT assay relative to control; assay type: cell-based, HEK-293T; details: dose 2.5 µmol/L, read-out: Activity
[25] = Toxicity in human MDA-MB-231 cells assessed as cell viability at 2.5 umol/L incubated for 24 hrs by MTT assay relative to control; assay type: cell-based; details: dose 2.5 µmol/L, read-out: Activity
[26] = Toxicity in human U2OS cells assessed as cell viability at 2.5 umol/L incubated for 24 hrs by MTT assay relative to control; assay type: cell-based; details: dose 2.5 µmol/L, read-out: Activity
[27] = system: U2OS; assay: Antitumor activity against human U2OS cells xenografted in NOD/SCID mouse assessed as inhibition of growth of both primary and metastatic tumors at 18 ug, iv dosed once every 2 days for 6 days successively relative to control; assay type: functional, organism-based; details: dose 18.0 µg, time 6.0 day
[28] = system: U2OS; assay: Antitumor activity against human U2OS cells xenografted in NOD/SCID mouse assessed as inhibition of distant organ metastasis at 18 ug, iv dosed once every 2 days for 6 days successively relative to control; assay type: functional, organism-based; details: dose 18.0 µg, time 6.0 day
[29] = system: U2OS; assay: Antitumor activity against human U2OS cells xenografted in NOD/SCID mouse assessed as inhibition of tumor growth at 18 ug, iv dosed once every 2 days for 6 days successively relative to control; assay type: functional; details: dose 18 µg, time 6 day
[30] = system: U2OS; assay: Antitumor activity against human U2OS cells xenografted in NOD/SCID mouse assessed as time duration with 100% survival with at 18 ug, iv dosed once every 2 days for 6 days successively relative to control; assay type: functional; details: dose 18 µg, time 6 day
[31] = system: U2OS; assay: Antitumor activity against human U2OS cells xenografted in NOD/SCID mouse assessed as inhibition of tumor growth at 100 mg/kg, po dosed once every 2 days for 2 weeks relative to control; assay type: functional; details: 1008 h, time 6 weeks, read-out: TGI
[32] = Toxicity in Kunming mouse assessed as induction of adverse effect or tissue damage in major organs measured after 14 days; details: in vivo, 336 h, time 14 day
[33] = Toxicity in Kunming mouse assessed as effect on blood components measured after 14 days; details: in vivo, 336 h, time 14 day
[34] = Toxicity in Kunming mouse assessed as effect on body weight changes measured after 14 days; details: in vivo, 336 h, time 14 day
[35] = system: U2OS; assay: Antitumor activity against human U2OS cells xenografted in NOD/SCID mouse assessed as inhibition of growth of both primary and metastatic tumors at 30 ug, iv dosed once every 2 days for 6 days successively relative to control; assay type: functional, organism-based; details: dose 30.0 µg, time 6.0 day
[36] = system: U2OS; assay: Antitumor activity against human U2OS cells xenografted in NOD/SCID mouse assessed as inhibition of distant organ metastasis at 30 ug, iv dosed once every 2 days for 6 days successively relative to control; assay type: functional, organism-based; details: dose 30.0 µg
[37] = system: U2OS; assay: Antitumor activity against human U2OS cells xenografted in NOD/SCID mouse assessed as inhibition of tumor growth at 30 ug, iv dosed once every 2 days for 6 days successively relative to control; assay type: functional; details: dose 30 µg, time 6 day
[38] = system: U2OS; assay: Antitumor activity against human U2OS cells xenografted in NOD/SCID mouse assessed as time duration with 100% survival with at 30 ug, iv dosed once every 2 days for 6 days successively relative to control; assay type: functional; details: dose 30 µg, time 6 day

Structure (SMILES) | inhibition [1] [%] | inhibition [2] [%] | inhibition [3] [%] | inhibition [4] [%] | inhibition [5] [%] | inhibition [6] [%] | viability at 24 h, 2.5 µM [7] [%] | viability at 24 h, 2.5 µM [8] [%] | inhibition [10] | inhibition [14] | IC50 [16] [nM] | inhibition [21] | viability at 24 h, 2.5 µM [22] [%] | viability at 24 h, 2.5 µM [23] [%] | viability at 24 h, 2.5 µM [24] [%] | viability at 24 h, 2.5 µM [25] [%] | viability at 24 h, 2.5 µM [26] [%] | Activity [32] | Activity [33] | Activity [34] | other results
COc1ccc(-c2coc3cc(O[C@@H]4O[C@H](CO)[C@@H](O)[C@H](O)[C@H]4O)ccc3c2=O)cc1 | > 50 | – | – | – | – | – | – | – | – | – | – | – | – | – | – | – | – | – | – | – | –
O=C(O)[C@H]1O[C@@H](Oc2cc3oc(-c4ccc(O)cc4)cc(=O)c3c(O)c2O)[C@H](O)[C@@H](O)[C@@H]1O | > 50 | > 50 | > 50 | > 50 | > 50 | – | – | – | – | – | – | – | – | – | – | – | – | – | – | – | –
O=C1C[C@@H](c2ccc(O)cc2)Oc2cc(O)ccc21 | > 50 | > 50 | > 50 | > 50 | > 50 | > 50 | – | – | – | – | – | – | – | – | – | – | – | – | – | – | –
O=C(/C=C/c1ccc(O)cc1)c1ccc(O)cc1O [ISOLIQUIRITIGENIN] | > 50 | > 50 | > 50 | > 50 | > 50 | > 50 | > 90 | > 90 | Active | Active | 10 | Active | > 90 | > 90 | > 90 | > 90 | > 90 | Non-Toxic | Non-Toxic | Non-Toxic | inhibition [9]: Active; inhibition [11]: Active; inhibition [12]: Active; inhibition [13]: Active; IC50 [15]: 14 nM; IC50 [17]: 8 nM; IC50 [18]: 81 nM; IC50 [19]: 10 nM; IC50 [20]: 16 nM; inhibition [27]: Active; inhibition [28]: Active; TGI [29]: 80%; Survival [30]: 70 days; inhibition in vivo at 100 mg/kg [31]: 72%
O=c1c2cc(O)c(O)cc2oc2cc(O)c([C@@H]3O[C@H](CO)[C@@H](O)[C@H](O)[C@H]3O)c(O)c12 [MANGIFERIN] | > 50 | – | – | – | > 50 | – | > 90 | > 90 | Active | Active | 250 | Active | > 90 | > 90 | > 90 | > 90 | > 90 | Non-Toxic | Non-Toxic | Non-Toxic | inhibition [35]: Active; inhibition [36]: Active; TGI [37]: 35%; Survival [38]: 41 days
